Here are results for 13 compounds from patent US20260199382A1, “PHOSPHORAMIDATE MONOSACCARIDES, PHARMACEUTICAL COMPOSITIONS, AND DIAGNOSTIC AND THERAPEUTIC APPLICATIONS” (Surio Therapeutics Co., LTD., priority 2022, published 2026).

Holding throughout (format): cell-based
Common to all, as to conditions: 48 h; for AAM % / PBS %: 25 μM; for AAM %: mean fluorescence compared with Ac4ManNAz (AAM) positive control; for PBS %: mean fluorescence compared with PBS negative control; for Mean FL (×10^5): compound 25 μM, 37° C., DBCO-biotin then streptavidin-Cy5, mean fluorescence of live cells

One assay deals with MDA-MB-231. The experiment in a line: Flow cytometry analysis of cell labeling (labeling efficiency of azido compounds) in MDA-MB-231. As for the experimental part:
(§1) Cells (2.0×10^5 cells/mL, 2 mL) were seeded in a 6-well culture plate and attached at 37° C. overnight. After washed thrice with PBS, the cells were incubated with an azido compound provided herein (25 μM) at 37° C. for 48 h. After washed thrice with PBS, the cells were incubated with DBCO-biotin (50 μM) in 500 μL serum free DMEM at 37° C. for 1 h. The cells were washed thrice with PBS and then incubated with streptavidin-Cy5 (5 μg/mL) in 500 μL serum free DMEM at 37° C. for 1 h. The cells were washed thrice with PBS, followed by addition of 300 μL 1× trypsin/EDTA for digestion. The lifted cells were transferred to a 1.5 mL EP tube, centrifuge at 1,000 rpm for 3 min, and washed with PBS once. Finally, 500 μL PBS containing 4% PFA was added to the cell pellet to fix the cells. The cell suspension was transferred to a flow tube and mixed with 10 μL of a PI working solution (50 μg/mL) at room temperature for 30 min before being subjected to flow cytometry.
(§2) Flow cytometry was used to characterize the labeling efficiency of a compound provided herein. After cells were labeled with an azido group, DBCO-biotin was added to specifically react with the azido group. Avidin-Cy5 was added bind to the cell surface biotin for a flow cytometry analysis. Dead cells were stained with PI and excluded from the analysis. Results were presented as the mean fluorescence of live cells, compared with PBS as a negative control and Ac4ManNAz (AAM) as a positive control, Ac4ManNAz (AAM, CAS: 361154-30-5).

The subject of the next assay is OVCAR3. The experiment in a line: Flow cytometry analysis of cell labeling (labeling efficiency of azido compounds) in OVCAR3. As for the experimental part:
as §1, §2

In a further assay the test system is A549 cells. Briefly: Flow cytometry analysis of cell labeling (labeling efficiency of azido compounds) in A549 cells. As for the experimental part: as §1, §2

`CCC(CC)COC(=O)[C@H](C)NP(=O)(OC[C@H]1OC(OC(C)=O)[C@@H](NC(=O)CN=[N+]=[N-])[C@@H](OC(C)=O)[C@@H]1OC(C)=O)Oc1ccccc1` (stereo partly drawn) [Compound A23, Acetyl 2-(2-azidoacetylamino)-2-deoxy-3,4-di-O-acetyl-6-O—(((S)-1-(2-ethyl-butoxy)carbonylethylamino)(phenoxy)phosphoryl)-D-mannopyranoside]: in the assay on MDA-MB-231, the AAM % was found to be 98%, the PBS % was determined as 642% and the “Mean FL (×10^5)” value is reported as 12.2 ×10^5.

Consider `CC(=O)OC1O[C@H](COP(=O)(N[C@@H](C)C(=O)OCc2cccc3ncccc23)Oc2ccccc2)[C@@H](OC(C)=O)[C@H](OC(C)=O)[C@@H]1NC(=O)CN=[N+]=[N-]` (stereo partly drawn) [Compound A27, Acetyl 2-(2-azidoacetylamino)-2-deoxy-3,4-di-O-acetyl-6-O—(((S)-1-quinolin-5-ylmethoxycarbonylethylamino)(phenoxy)phosphoryl)-D-mannopyranoside], for which, in the assay on OVCAR3, the AAM % came to 93.3%, the PBS % was 19231% and the “Mean FL (×10^5)” value was 2.5 ×10^5. For the same compound, in the assay with MDA-MB-231, the AAM % worked out at 109%, the PBS % came to 716% and the “Mean FL (×10^5)” value is reported as 13.6 ×10^5.

For the compound `CC(=O)OC1O[C@H](COP(=O)(N[C@@H](C)C(=O)OCc2ccnc3ccccc23)Oc2ccccc2)[C@@H](OC(C)=O)[C@H](OC(C)=O)[C@@H]1NC(=O)CN=[N+]=[N-]` (stereo partly drawn) [Compound A26, Acetyl 2-(2-azidoacetylamino)-2-deoxy-3,4-di-O-acetyl-6-O—(((S)-1-quinolin-4-ylmethoxycarbonylethylamino)(phenoxy)phosphoryl)-D-mannopyranoside], in the assay on OVCAR3, the AAM % turned out to be 89.6%, the PBS % was determined as 18462% and the “Mean FL (×10^5)” value is 2.4 ×10^5. Also, in the assay with MDA-MB-231, the AAM % is on record as 144%, the PBS % stood at 947% and the “Mean FL (×10^5)” value is recorded as 18.0 ×10^5.

With `CC(=O)OC1O[C@H](COP(=O)(N[C@@H](C)C(=O)OC(C)C)Oc2ccccc2)[C@@H](OC(C)=O)[C@H](OC(C)=O)[C@@H]1NC(=O)CN=[N+]=[N-]` (stereo partly drawn) [Compound A1, acetyl 2-(2-azidoacetylamino)-2-deoxy-3,4-di-O-acetyl-6-O—(((S)-1-isopropoxy-carbonylethylamino)(phenoxy)phosphoryl)-D-mannopyranoside], in the assay with A549 cells, the AAM % turned out to be 89%, the PBS % came to 540% and the “Mean FL (×10^5)” value is 16.2 ×10^5. Further, in the assay on MDA-MB-231, the AAM % came out at 101%, the PBS % was 663% and the “Mean FL (×10^5)” value was 12.6 ×10^5.

Consider `CC(=O)OC1O[C@H](COP(=O)(N[C@@H](C)C(=O)OC(C)(C)C)Oc2ccccc2)[C@@H](OC(C)=O)[C@H](OC(C)=O)[C@@H]1NC(=O)CN=[N+]=[N-]` (stereo partly drawn) [Compound A20, acetyl 2-(2-azidoacetylamino)-2-deoxy-3,4-di-O-acetyl-6-O—(((S)-1-tert-butoxy-carbonylethylamino)(phenoxy)phosphoryl)-D-mannopyranoside], for which, in the assay on MDA-MB-231, the AAM % is recorded as 51%, the PBS % is 338% and the “Mean FL (×10^5)” value is recorded as 6.43 ×10^5.

In the case of `CC(=O)OC[C@H]1OC(OP(=O)(N[C@@H](C)C(=O)OC(C)c2ccccc2)Oc2ccccc2)[C@@H](NC(=O)CN=[N+]=[N-])[C@@H](OC(C)=O)[C@@H]1OC(C)=O` (stereo partly drawn) [Compound B1, (((1S)-1-(1-Phenylethoxy-carbonyl)ethylamino)(phenoxy)phosphoryl) 2-(2-azidoacetylamino)-2-deoxy-3,4,6-tri-O-acetyl-D-mannopyranoside], in the assay on A549 cells, the AAM % was determined as 42%, the PBS % is recorded as 256% and the “Mean FL (×10^5)” value is recorded as 7.67 ×10^5.

In the case of `CC(=O)OC1O[C@H](COP(=O)(N[C@@H](C)C(=O)OCc2ccncc2)Oc2ccccc2)[C@@H](OC(C)=O)[C@H](OC(C)=O)[C@@H]1NC(=O)CN=[N+]=[N-]` (stereo partly drawn) [Compound A25, Acetyl 2-(2-azidoacetylamino)-2-deoxy-3,4-di-O-acetyl-6-O—(((S)-1-pyridin-4-ylmethoxycarbonylethylamino)(phenoxy)phosphoryl)-D-mannopyranoside], in the assay on OVCAR3, the AAM % is 26.9%, the PBS % stood at 5538% and the “Mean FL (×10^5)” value was 0.72 ×10^5.

For `CCCCCCOC(=O)[C@H](C)NP(=O)(OC[C@H]1OC(OC(C)=O)[C@@H](NC(=O)CN=[N+]=[N-])[C@@H](OC(C)=O)[C@@H]1OC(C)=O)Oc1ccccc1` (stereo partly drawn) [Compound A22, Acetyl 2-(2-azidoacetylamino)-2-deoxy-3,4-di-O-acetyl-6-O—(((S)-1-hexoxy-carbonylethylamino)(phenoxy)phosphoryl)-D-mannopyranoside], in the assay with MDA-MB-231, the AAM % is reported as 104%, the PBS % is reported as 684% and the “Mean FL (×10^5)” value was 13.0 ×10^5.

In the case of `CC(=O)OC1OC(COP(=O)(N[C@H](C(=O)OC(C)c2ccccc2)C(C)C)Oc2ccccc2)C(OC(C)=O)C(OC(C)=O)C1NC(=O)CN=[N+]=[N-]` (stereo partly drawn) [Compound A5, 2-(2-Azidoacetylamino)-2-deoxy-3,4-di-O-acetyl-6-O-(((1S)-1-(1-phenylethoxy-carbonyl)-2-methylpropylamino)(phenoxy)phosphoryl)-D-mannopyranoside], in the assay with A549 cells, the AAM % was 20%, the PBS % amounted to 118% and the “Mean FL (×10^5)” value is recorded as 3.55 ×10^5.

As to `CC(=O)OC1OC(COP(=O)(N[C@@H](C)C(=O)OC(C)c2ccccc2)Oc2ccccc2)C(OC(C)=O)C(OC(C)=O)C1NC(=O)CN=[N+]=[N-]` (stereo partly drawn) [Compound A3], in the assay on A549 cells, the AAM % is 48%, the PBS % was found to be 294% and the “Mean FL (×10^5)” value is 8.82 ×10^5.

Regarding `CC(=O)OC1OC(COP(=O)(NC(C)(C)C(=O)OC(C)c2ccccc2)Oc2ccccc2)C(OC(C)=O)C(OC(C)=O)C1NC(=O)CN=[N+]=[N-]` [Compound A4, 2-(2-Azidoacetylamino)-2-deoxy-3,4-di-O-acetyl-6-O-((1-methyl-1-(1-phenyl-ethoxycarbonyl)ethylamino)(phenoxy)phosphoryl)-D-mannopyranoside], in the assay on A549 cells, the AAM % worked out at 51%, the PBS % was determined as 311% and the “Mean FL (×10^5)” value is given as 9.32 ×10^5.

As for `CCCCOC(=O)[C@H](C)NP(=O)(OC[C@H]1OC(OC(C)=O)[C@@H](NC(=O)CN=[N+]=[N-])[C@@H](OC(C)=O)[C@@H]1OC(C)=O)Oc1ccccc1` (stereo partly drawn) [Compound A18, acetyl 2-(2-azidoacetylamino)-2-deoxy-3,4-di-O-acetyl-6-O—(((S)-1-butoxy-carbonylethylamino)(phenoxy)phosphoryl)-D-mannopyranoside], in the assay on MDA-MB-231, the AAM % was 99%, the PBS % is reported as 653% and the “Mean FL (×10^5)” value was 12.4 ×10^5.

Take `CC(=O)OC1O[C@H](COP(=O)(N[C@@H](C)C(=O)OCc2cccnc2)Oc2ccccc2)[C@@H](OC(C)=O)[C@H](OC(C)=O)[C@@H]1NC(=O)CN=[N+]=[N-]` (stereo partly drawn) [Compound A24, Acetyl 2-(2-azidoacetylamino)-2-deoxy-3,4-di-O-acetyl-6-O—(((S)-1-pyridin-3-ylmethoxycarbonylethylamino)(phenoxy)phosphoryl)-D-mannopyranoside]: in the assay on OVCAR3, the AAM % turned out to be 28.7%, the PBS % came to 5923% and the “Mean FL (×10^5)” value is 0.77 ×10^5.
